One series deals with T1, BdsA (Bacillus subtilis, UniProt Q8GRC7).
T1 construct: monomer 453 residues; homotetramer, ~220 kDa by gel filtration
The series can be described thus: X-ray crystallography, […] A, crystal soaking. Type of series: binding. Conditions: crystals soaked in 1 mM FMN for 30 min, pH 5.5; one FMN per subunit, active site.

Series [1] deals with the molecule itself. The series can be described thus: SEC; Superdex-200 gel filtration in 10 mM Tris-HCl (pH 8.0), 100 mM NaCl; oligomeric state in solution from the elution volume (~220 kDa).

The values below come from publication PMC5819316, “Structural and Biochemical Characterization of BdsA from Bacillus subtilis WU-S2B, a Key Enzyme in the “4S” Desulfurization Pathway” (Frontiers in Microbiology, 2018).

For the molecule `Cc1cc2nc3c(=O)[nH]c(=O)nc-3n(C[C@H](O)[C@H](O)[C@H](O)COP(=O)(O)O)c2cc1C` [FMN], the “X-ray crystallography, 2.4 A, crystal soaking” value on BdsA is “The structure of the tetrameric BdsA–FMN complex contains four FMN molecules”.

B1: DBT sulfone monooxygenase BdsA from Bacillus subtilis WU-S2B (enzyme)
chain: MAEQRQLHLAGFFSAGNVTHAHGAWRHVGATNGFLTGEFYKQIARTLERGKFDLLFLPDGLAIEDSYGDNLETGVGLGGQGAVALEPTSVIATMAAVTQRLGLGATVSTTYYPPYHVARVFATLDNLSDGRISWNVVTSLNDSEARNFGVDEHLEHDIRYDRADEFLEAVKKLWSSWSEDALLLDKVGGRFADPKKVQYVNHRGRWLSVRGPLQVPRSRQGEPVILQAGLSPRGRRFAGRWAEAVFSVSPNLDIMRAVYQDIKAHVAAAGRDPEQTKVFTAVMPVLGETEQVARERLEYLNSLVHPEVGLSTLSSHSGLNLSKYPLDTKFSDIVADLGDRHVPTMLQMFSAVAGGGADLTLAELGRRYGTNVGFVPQWAGTAEQIADQLISHFEAGAADGFIISPAYLPGIYEEFVDQVVPLLQQRGVFRTEYEGTTLREHLGLAHPEVGSIR
notes: BdsA (DBT sulfone monooxygenase), Bacillus subtilis WU-S2B; synthesized bdsA gene cloned into the NdeI and XhoI sites of pET-15b; each monomer is composed of 453 amino acids; in the crystal the N-terminus to Gln4 and Ser451 to the C-terminus are not visible; No removal of the His-tag is described; also called apo-BdsA; dibenzothiophene sulfone monooxygenase; source: E. coli BL21 (DE3), purified …
B1: the “stoichiometry N” value in series [1] was 4.
